Assay results as given in the NIST ThermoML archive (doi:10.1016/j.jct.2007.11.011).
± gives the expanded uncertainty stated by the source.

Conditions: Liquid

CCOS(=O)(=O)[O-].CCn1cc[n+](C)c1 [1-ethyl-3-methylimidazolium ethyl sulfate]
mass density (283.15 K, 100 kPa): 1246.94 ± 0.83 kg/m3
mass density (283.15 K, 2500 kPa): 1247.9 ± 0.94 kg/m3
mass density (283.15 K, 5000 kPa): 1248.89 ± 1.1 kg/m3
mass density (283.15 K, 10000 kPa): 1250.85 ± 1.4 kg/m3
mass density (283.15 K, 15000 kPa): 1252.79 ± 1.7 kg/m3
mass density (283.15 K, 20000 kPa): 1254.73 ± 2 kg/m3
mass density (283.15 K, 25000 kPa): 1256.61 ± 2.3 kg/m3
mass density (283.15 K, 30000 kPa): 1258.47 ± 2.6 kg/m3
mass density (283.15 K, 35000 kPa): 1260.31 ± 2.9 kg/m3
mass density (293.15 K, 100 kPa): 1239.88 ± 0.81 kg/m3
mass density (293.15 K, 2500 kPa): 1240.89 ± 0.92 kg/m3
mass density (293.15 K, 5000 kPa): 1241.91 ± 1.1 kg/m3
mass density (293.15 K, 10000 kPa): 1243.9 ± 1.4 kg/m3
mass density (293.15 K, 15000 kPa): 1245.88 ± 1.6 kg/m3
mass density (293.15 K, 20000 kPa): 1247.83 ± 1.9 kg/m3
mass density (293.15 K, 25000 kPa): 1249.76 ± 2.2 kg/m3
mass density (293.15 K, 30000 kPa): 1251.66 ± 2.5 kg/m3
mass density (293.15 K, 35000 kPa): 1253.57 ± 2.9 kg/m3
mass density (298.15 K, 100 kPa): 1236.35 ± 0.81 kg/m3
mass density (298.15 K, 2500 kPa): 1237.35 ± 0.92 kg/m3
mass density (298.15 K, 5000 kPa): 1238.4 ± 1 kg/m3
mass density (298.15 K, 10000 kPa): 1240.44 ± 1.3 kg/m3
mass density (298.15 K, 15000 kPa): 1242.46 ± 1.6 kg/m3
mass density (298.15 K, 20000 kPa): 1244.44 ± 1.9 kg/m3
mass density (298.15 K, 25000 kPa): 1246.41 ± 2.2 kg/m3
mass density (298.15 K, 30000 kPa): 1248.35 ± 2.5 kg/m3
mass density (298.15 K, 35000 kPa): 1250.23 ± 2.8 kg/m3
mass density (303.15 K, 100 kPa): 1232.72 ± 0.8 kg/m3
mass density (303.15 K, 2500 kPa): 1233.78 ± 0.91 kg/m3
mass density (303.15 K, 5000 kPa): 1234.83 ± 1 kg/m3
mass density (303.15 K, 10000 kPa): 1237 ± 1.3 kg/m3
mass density (303.15 K, 15000 kPa): 1239.02 ± 1.6 kg/m3
mass density (303.15 K, 20000 kPa): 1241.03 ± 1.9 kg/m3
mass density (303.15 K, 25000 kPa): 1243.02 ± 2.2 kg/m3
mass density (303.15 K, 30000 kPa): 1244.98 ± 2.5 kg/m3
mass density (303.15 K, 35000 kPa): 1246.84 ± 2.8 kg/m3
mass density (313.15 K, 100 kPa): 1226.06 ± 0.79 kg/m3
mass density (313.15 K, 2500 kPa): 1227.11 ± 0.89 kg/m3
mass density (313.15 K, 5000 kPa): 1228.18 ± 1 kg/m3
mass density (313.15 K, 10000 kPa): 1230.3 ± 1.3 kg/m3
mass density (313.15 K, 15000 kPa): 1232.38 ± 1.6 kg/m3
mass density (313.15 K, 20000 kPa): 1234.45 ± 1.9 kg/m3
mass density (313.15 K, 25000 kPa): 1236.48 ± 2.1 kg/m3
mass density (313.15 K, 30000 kPa): 1238.47 ± 2.4 kg/m3
mass density (313.15 K, 35000 kPa): 1240.45 ± 2.7 kg/m3
mass density (323.15 K, 100 kPa): 1219.19 ± 0.77 kg/m3
mass density (323.15 K, 2500 kPa): 1220.23 ± 0.87 kg/m3
mass density (323.15 K, 5000 kPa): 1221.36 ± 0.98 kg/m3
mass density (323.15 K, 10000 kPa): 1223.53 ± 1.2 kg/m3
mass density (323.15 K, 15000 kPa): 1225.69 ± 1.5 kg/m3
mass density (323.15 K, 20000 kPa): 1227.8 ± 1.8 kg/m3
mass density (323.15 K, 25000 kPa): 1229.93 ± 2.1 kg/m3
mass density (323.15 K, 30000 kPa): 1231.96 ± 2.4 kg/m3
mass density (323.15 K, 35000 kPa): 1233.91 ± 2.7 kg/m3
mass density (333.15 K, 100 kPa): 1212.42 ± 0.76 kg/m3
mass density (333.15 K, 2500 kPa): 1213.53 ± 0.86 kg/m3
mass density (333.15 K, 5000 kPa): 1214.66 ± 0.96 kg/m3
mass density (333.15 K, 10000 kPa): 1216.87 ± 1.2 kg/m3
mass density (333.15 K, 15000 kPa): 1219.08 ± 1.5 kg/m3
mass density (333.15 K, 20000 kPa): 1221.24 ± 1.8 kg/m3
mass density (333.15 K, 25000 kPa): 1223.33 ± 2 kg/m3
mass density (333.15 K, 30000 kPa): 1225.42 ± 2.3 kg/m3
mass density (333.15 K, 35000 kPa): 1227.46 ± 2.6 kg/m3
